Results from patent US9187448B2, “Flavonoid compounds” (CARDERO THERAPEUTICS, INC., priority 2011, dated 2015).

Assays:
[1] = test system: mitochondrial complex proteins (MCP) I and V; assay: Western blot of mitochondrial complex proteins (MCP) in coronary artery endothelial cells; format: cell-based, human (HCAEC) or bovine (BCAEC); settings: HCAEC or BCAEC, Western blot band intensity; results shown in FIG. 2
Method: The effect of (−)-epicatechin analogs on mitochondrial complex proteins (MCP) I and V was studied human (HCAEC) or bovine (BCAEC) Coronary Artery Endothelial cells. Western blots were performed as follows: Approximately 50 mg of cells were homogenized with a polytron in 500 μl lysis buffer (1% triton X-100, 20 mM Tris, 140 mM NaCl, 2 mM EDTA, and 0.1% SDS) with protease and phosphatase inhibitor cocktails (P2714 and P2850, Sigma-Aldrich, St. Louis, Mo.) supplemented with 0.15 mM PMSF, 5 mM Na3VO4 and 3 mM NaF. Homogenates were passed through an insulin syringe five times, sonicated for 30 min at 4° C. and centrifuged (12,000 g) for 10 min. The total protein content was measured in the supernatant using the Bradford method. A total of 40 μg of protein was loaded onto a 4%-15% precast TGX polyacrylamide gel (Bio-rad), electrotransferred (12 V, 50 minutes), incubated for 1 h in blocking solution (5% nonfat dry milk in TBS plus 0.1% Tween 20 [TBS-T]). Blots were probed with a cocktail of monoclonal antibodies to electron transport chain proteins (OXPHOS) (20 KDa subunit of complex I, 26 KDa subunit of complex IV, subunit core 2 of complex III, 30 Kda complex II and ATP synthase 54 Kda complex V). […] The band intensities were digitally quantified using ImageJ software (http://www.nih.gov).

[2] = rat; cited from earlier work
MRP2 efflux transporter = target: T1, MRP2 efflux transporter (Homo sapiens, UniProt Q92887); settings: human intestinal Caco-2 cells; cited from earlier work
T1 construct: In a study of enterocyte absorption using human intestinal Caco-2 cells; endogenous in cells; host or cells: Caco-2
T1 sequence (Q92887 whole entry): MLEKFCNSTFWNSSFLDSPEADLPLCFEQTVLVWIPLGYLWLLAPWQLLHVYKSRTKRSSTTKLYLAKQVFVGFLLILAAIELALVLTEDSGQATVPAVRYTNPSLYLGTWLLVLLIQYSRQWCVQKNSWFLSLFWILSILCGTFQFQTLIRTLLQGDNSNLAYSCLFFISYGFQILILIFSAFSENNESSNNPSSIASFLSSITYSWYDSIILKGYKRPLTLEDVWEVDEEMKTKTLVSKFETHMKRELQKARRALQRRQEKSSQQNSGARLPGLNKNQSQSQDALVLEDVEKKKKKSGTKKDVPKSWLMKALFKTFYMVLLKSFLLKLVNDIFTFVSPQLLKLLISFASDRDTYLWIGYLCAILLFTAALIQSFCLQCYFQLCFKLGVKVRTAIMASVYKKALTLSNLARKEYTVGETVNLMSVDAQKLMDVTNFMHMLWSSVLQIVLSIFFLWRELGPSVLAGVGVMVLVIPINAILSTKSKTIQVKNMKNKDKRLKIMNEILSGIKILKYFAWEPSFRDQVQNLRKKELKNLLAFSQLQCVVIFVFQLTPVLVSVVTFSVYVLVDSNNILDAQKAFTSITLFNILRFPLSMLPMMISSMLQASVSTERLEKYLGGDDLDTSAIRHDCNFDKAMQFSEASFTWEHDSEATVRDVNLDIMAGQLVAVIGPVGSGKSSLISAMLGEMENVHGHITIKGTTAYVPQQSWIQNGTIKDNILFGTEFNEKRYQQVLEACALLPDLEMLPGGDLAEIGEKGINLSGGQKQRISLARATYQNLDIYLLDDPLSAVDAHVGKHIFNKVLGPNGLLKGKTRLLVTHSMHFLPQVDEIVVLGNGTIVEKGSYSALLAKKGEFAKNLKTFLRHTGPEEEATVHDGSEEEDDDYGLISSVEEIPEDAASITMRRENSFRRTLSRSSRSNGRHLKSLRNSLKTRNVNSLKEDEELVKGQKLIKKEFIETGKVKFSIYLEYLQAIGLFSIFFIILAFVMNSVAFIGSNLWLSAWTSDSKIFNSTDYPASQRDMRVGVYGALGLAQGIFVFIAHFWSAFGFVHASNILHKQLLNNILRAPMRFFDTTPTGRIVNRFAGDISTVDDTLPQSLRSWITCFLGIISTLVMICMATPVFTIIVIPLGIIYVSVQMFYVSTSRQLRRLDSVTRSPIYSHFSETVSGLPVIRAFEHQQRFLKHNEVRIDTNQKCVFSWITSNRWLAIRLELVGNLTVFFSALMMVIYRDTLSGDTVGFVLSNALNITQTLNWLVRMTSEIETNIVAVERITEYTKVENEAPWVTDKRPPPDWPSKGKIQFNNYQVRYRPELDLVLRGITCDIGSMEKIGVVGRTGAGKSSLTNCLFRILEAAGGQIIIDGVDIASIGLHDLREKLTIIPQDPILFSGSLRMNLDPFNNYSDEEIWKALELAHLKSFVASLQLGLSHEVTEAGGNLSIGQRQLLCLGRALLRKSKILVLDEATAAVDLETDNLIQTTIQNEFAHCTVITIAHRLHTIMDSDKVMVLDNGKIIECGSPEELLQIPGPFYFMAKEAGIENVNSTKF

[3] = humans, ingested in chocolate; cited from earlier work

## COc1cc(OC)c2c(c1)O[C@H](c1ccc(O)c(O)c1)[C@H](O)C2 [5,7-dimethyl substituted (−)-epicatechin]
[1]
  effect on MCP (activity/potency) relative to (−)-epicatechin: less potent than the unsubstituted parent

## Oc1cc(O)c2c(c1)O[C@H](c1ccc(O)c(O)c1)[C@@H](O)C2 [(+)-catechin]
[2]
  effect on absorption of (−)-epicatechin: inhibited

## Oc1cc(O)c2c(c1)O[C@H](c1ccc(O)c(O)c1)[C@H](O)C2 [(−)-epicatechin, (2R,3R)-2-(3,4-dihydroxyphenyl)chroman-3,5,7-triol]
MRP2 efflux transporter
  efflux transporter substrate status: substrate of the MRP2 efflux transporter
[3]
  fraction absorbed: approximately 30%

## CN(C)C(=O)CCSC(SCCC(=O)O)c1cccc(/C=C/c2ccc3ccc(Cl)cc3n2)c1 (centres unmarked) [MK-571]
MRP2 efflux transporter
  effect of MRP2 inhibition on absorption of (−)-epicatechin: increased absorption of (−)-epicatechin somewhat
